The text below walks through data of patent US4883863A, “Tripeptide derivatives and antiplasmin agents containing the same” (Nitto Boseki Co., Ltd., priority 1987, dated 1989).

Format in all cases: biochemical
One test deals with T1, thrombin (Homo sapiens, UniProt P00734).
T1 construct: purchased Sankyo (Color Test ATIII kit)
In words: Thrombin-inhibiting activity, synthetic substrate PS-915. As to conditions: Table 4; PS-915, pH 8.5, 37° C. From the text: (§1) Synthetic substrates used for testing the inhibitory activity of the inhibitors on decomposition of substrates by the enzymes were as follows. For plasmin, PS-994 (H--D--Lys(Tos)--Phe--Lys--CHA·2HCl, mfd. by NITTO BOSEKI Co., Ltd.) was used; for thrombin and trypsin, PS-915 (H--D--Phe--Pro--Arg--CHA·2HCl, mfd. by NITTO BOSEKI Co., Ltd.); for Factor Xa, PS-2000 (Z--D--Lys--(HCO)--Gly--Arg--CHA·HCl, mfd. by NITTO BOSEKI Co., Ltd.); and for kallikrein, S-2302 (H--D--Pro--Phe--Arg--pNA, mfd., by Kabi Co., Ltd.).
(§2) As plasmin, standard plasmin of Sankyo Color Test α2 -D1 Kit was used in an amount of 0.3CU/ml. As thrombin, that of Sankyo Color Test ATIII kit was used in an amount of 1.2 NIHU/ml. As trypsin, that of cord 3703 of Worthington was used in an amount of 2 μg/ml. As human Factor Xa, that of Boehringer Manheim Co., Ltd. was used in an amount of 0.25 U/ml. As human plasma kallikrein, that of Kabi Co., Ltd. was used in an amount of 0.12 U/ml. As terminating color reagents, those for Sankyo Color Test Kit were used. The reactions were carried out at 37° C. unless otherwise specified.
Each of aqueous solutions (0.1 ml) of the inhibitors which solutions were various in their respective concentrations was added to 0.4 ml of a buffer solution (a 150 mM aqueous sodium chloride solution containing 150 mM Tris, pH 8.5), and the resulting solution was heated for 5 minutes. To this solution was added 0.2 ml of thrombin solution, followed by incubation for 5 minutes. Then, 0.1 ml of a PS-915 solution (10 mM) was added, followed by incubation for 5 minutes. Thereafter, 2 ml of terminating color reagent was added. After standing for 10 minutes, absorbance at 700 nm was measured, and IC50 was determined in the manner described above.

A further test addresses T2, trypsin (Bos taurus, UniProt P00760).
T2 construct: purchased Worthington 3703
T2 sequence (P00760 24-246): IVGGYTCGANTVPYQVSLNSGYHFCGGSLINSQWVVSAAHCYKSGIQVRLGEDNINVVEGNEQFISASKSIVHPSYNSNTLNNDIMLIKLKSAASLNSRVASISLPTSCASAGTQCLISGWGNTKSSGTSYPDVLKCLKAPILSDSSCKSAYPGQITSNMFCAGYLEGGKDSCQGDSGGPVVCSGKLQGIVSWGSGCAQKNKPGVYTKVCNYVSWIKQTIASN
In words: Trypsin-inhibiting activity, synthetic substrate PS-915. As to conditions: Table 4; PS-915, pH 8.0, 37° C.
Description: as §1, §2
Each of aqueous solutions (0.1 ml) of the inhibitors which solutions were various in their respective concentrations was added to 0.5 ml of a buffer solution (a 150 mM aqueous sodium chloride solution containing 150 mM Tris, pH 8.0), and the resulting solution was heated for 5 minutes. Then, 0.1 ml of a trypsin solution was added, followed by incubation for 5 minutes. Subsequently, 0.1 ml of a PS-915 solution (10 mM) was added, followed by incubation for 5 minutes. Thereafter, 2 ml of terminating color reagent [containing […] of soybean trypsin inhibitor (No. T-9003, available from Sigma Chemical Co.)] was added. After standing for 10 minutes, absorbance at 700 nm was measured and IC50 was determined in the manner described above.

The next test concerns the target T3, human plasma kallikrein (Homo sapiens, UniProt P03952).
T3 construct: purchased Kabi Co., Ltd
Put plainly: Kallikrein-inhibiting activity, synthetic substrate S-2302. As to conditions: Table 4; S-2302, pH 8.0, 37° C.
Description: as §1, §2
Each of aqueous solutions (0.1 ml) of the inhibitors which solutions were various in their respective concentrations was added to 0.4 ml of a buffer solution (a 150 mM aqueous sodium chloride solution containing 50 mM Tris, pH 8.0), and the resulting mixture was heated for 5 minutes. Then, 0.1 ml of a kallikrein solution [containing 0.5% bovine serum albumin (No. A8022 available from Sigma Chemical Co.)] was added, followed by incubation for 5 minutes. Subsequently, a 10 mM S-2302 aqueous solution (0.1 ml) was added. The reaction was terminated by addition of a 20% aqueous acetic acid solution. Absorbance at 405 nm was measured and IC50 was measured in the manner described above.

The target in test [1] is T4, plasmin (Homo sapiens, UniProt P00747). Put plainly: Inhibitory activity on fibrinogen decomposition by plasmin (natural substrate). The settings on record: Table 4; 2% fibrinogen, pH 7.2, 37° C. Further details: purchased Sankyo (Color Test α2 -D1 Kit). The method, then:
The determination was carried out by a modification of the method described in Takaaki Aoyagi. "Koso Sogai Busshitsu (Enzyme Inhibiting Substances)" Kyoritsu Zensho, p. 12.
To 0.3 ml of phosphate buffer (pH 7.2) was added 0.1 ml of an aqueous solution of each inhibitor, and the resulting solution was heated at 37° C. for 5 minutes. Then, 0.1 ml of a plasmin solution (12 CU/ml) was added, followed by incubation for 5 minutes. Subsequently, 0.7 ml of phosphate buffer (pH 7.2) containing 2% fibrinogen was added, followed by incubation for 15 minutes. After completion of the reaction, a 12% aqueous hydrochloride acid solution (1.5 ml) containing 6% trichloroacetic acid was added, and the resulting mixture was lightly shaken, allowed to stand at room temperature for 15 minutes, and then centrifuged (3000 r.p.m., 10 minutes). The absorbance of the supernatant was measured at 280 nm, and a concentration of the inhibitor at which the absorbance was the same as when the amount of the enzyme added was reduced by half was determined as IC50.
Target sequence in this assay (P00747 581-810 limits assumed, species assumed): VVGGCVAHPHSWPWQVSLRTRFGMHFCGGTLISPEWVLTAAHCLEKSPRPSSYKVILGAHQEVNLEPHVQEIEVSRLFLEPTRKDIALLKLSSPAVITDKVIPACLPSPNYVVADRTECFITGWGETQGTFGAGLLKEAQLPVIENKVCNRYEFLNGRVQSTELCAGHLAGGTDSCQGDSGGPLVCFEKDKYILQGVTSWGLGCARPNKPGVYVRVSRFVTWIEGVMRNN
Target sequence in this assay (P00747 97-580 partner limits assumed, species assumed): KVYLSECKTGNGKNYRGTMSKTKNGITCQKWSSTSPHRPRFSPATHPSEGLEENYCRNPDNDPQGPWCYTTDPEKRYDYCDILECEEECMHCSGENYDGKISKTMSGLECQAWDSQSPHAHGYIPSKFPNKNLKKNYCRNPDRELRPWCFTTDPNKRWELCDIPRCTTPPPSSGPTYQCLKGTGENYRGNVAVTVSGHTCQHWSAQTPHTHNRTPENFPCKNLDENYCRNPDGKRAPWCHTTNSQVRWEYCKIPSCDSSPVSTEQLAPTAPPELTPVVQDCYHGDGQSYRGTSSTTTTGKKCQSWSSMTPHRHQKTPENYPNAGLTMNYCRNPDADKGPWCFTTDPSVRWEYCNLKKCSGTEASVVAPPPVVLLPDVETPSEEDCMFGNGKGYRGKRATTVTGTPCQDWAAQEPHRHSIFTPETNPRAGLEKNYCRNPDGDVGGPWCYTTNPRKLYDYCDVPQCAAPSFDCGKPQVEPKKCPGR

Test [2] has as its target T4, plasmin. Put plainly: Inhibitory activity on fibrin decomposition by plasmin (natural substrate). Further details: Standard human serum (0.1 ml); from tissue. The settings on record: Table 4; concentration doubling time for complete dissolution, 25° C. The method, then: The determination was carried out by the method of Okamoto et al. (see Keio Journal of Medicine, vol. 11, p. 105 (1962).
Standard human serum (0.1 ml), 0.4 ml of each of 1/20 M potassium phosphate sodium physiological salt buffer solutions (pH 7.4) containing various concentrations of each inhibitor, and 0.1 ml of a solution of streptokinase in physiological saline (1000 U/ml) were stirred and then cooled at 0° C. for 10 minutes. Thereto was added 0.05 ml of a solution of thrombin in physiological saline (100 NIHU/ml, mfd. by Parke Davis Co. Ltd.) at 0° C. After standing for 1 minute, 0.3 ml of a 0.33% solution of bovine fibrinogen (F-4753, available from Sigma Chemical Co.) in physiological saline was added, and the resulting mixture was allowed to stand at 25° C. The solubility was measured every minute by the standard of judgement of Nakamura (see Allergy, vol. 5, p. 1 (1956)) and the time required for complete dissolution was determined. A concentration of the inhibitor at which said time is twice that required in the absence of the inhibitor was determined as IC50.
Target sequence in this assay (P00747 581-810 limits assumed): as the sequence (P00747 581-810 limits assumed, species assumed) above
Target sequence in this assay (P00747 97-580 partner limits assumed): as the sequence (P00747 97-580 partner limits assumed, species assumed) above

Molecules are shown by their SMILES. Where a name gives a salt, the structure may show the parent alone. Where a SMILES comes first, the peptide text is derived from it. [ ]: non-standard residue; d: D form. The star is where a group is joined. Tos = Cc1ccc(S(=O)(=O)*)cc1; Moc = COC(=O)*; For = O=C*

T3 sequence (P03952 391-638 limits assumed): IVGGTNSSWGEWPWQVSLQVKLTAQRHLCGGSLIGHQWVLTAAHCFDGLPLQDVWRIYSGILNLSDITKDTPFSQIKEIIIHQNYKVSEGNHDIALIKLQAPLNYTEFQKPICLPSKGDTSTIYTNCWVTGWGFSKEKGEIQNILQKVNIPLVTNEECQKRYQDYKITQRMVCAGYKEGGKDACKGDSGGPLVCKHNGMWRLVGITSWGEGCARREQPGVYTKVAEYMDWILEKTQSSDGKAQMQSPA
T3 sequence (P03952 20-390 partner limits assumed): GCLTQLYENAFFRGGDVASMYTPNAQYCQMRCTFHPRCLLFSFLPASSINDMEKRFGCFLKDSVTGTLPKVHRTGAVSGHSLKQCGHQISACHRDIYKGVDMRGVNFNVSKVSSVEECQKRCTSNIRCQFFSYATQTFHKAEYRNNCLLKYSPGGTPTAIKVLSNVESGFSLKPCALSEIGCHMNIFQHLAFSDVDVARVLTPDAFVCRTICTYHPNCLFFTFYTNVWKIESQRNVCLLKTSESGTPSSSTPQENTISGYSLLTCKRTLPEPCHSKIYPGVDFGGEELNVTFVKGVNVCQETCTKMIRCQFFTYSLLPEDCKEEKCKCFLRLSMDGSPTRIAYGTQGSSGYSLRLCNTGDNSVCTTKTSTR

Broadly, the IC50 is the concentration needed to halve the response being measured. Low values mean higher potency, high ones lower potency. Turning to `COC(=O)N[C@H](CCCCNS(=O)(=O)c1ccc(C)cc1)C(=O)N[C@@H](Cc1ccccc1)C(=O)N[C@H](C=O)CCCCN` [Compound 2, N-α-Methoxycarbonyl-N-ε-(p-tosyl)-D-lysyl-L-phenylalanyl-L-lysinal hydrochloride] (Moc-[dK](Tos)-Phe-Lys-aldehyde), the IC50 against thrombin was above 1000 µM; against trypsin it was 2.5 µM; at human plasma kallikrein it was 0.36 µM; against plasmin [1] it was 0.13 µM; against plasmin [2] it was 0.23 µM.

With `Cc1ccc(S(=O)(=O)NCCCC[C@@H](NC=O)C(=O)N[C@@H](Cc2ccccc2)C(=O)N[C@H](C=O)CCCCN)cc1` [Compound 4, N-α-Formyl-N-ε-(p-tosyl)-D-lysyl-L-phenylalanyl-L-lysinal hydrochloride] (For-[dK](Tos)-Phe-Lys-aldehyde), the IC50 at thrombin was above 1000 µM; at trypsin, 7.8 µM; on human plasma kallikrein, 1 µM; at plasmin [1], 0.19 µM; against plasmin [2], 0.24 µM.
